Test results reported in patent US20090076009A1, “THIAZOLE DERIVATIVES AND THEIR USE AS ANTI-TUMOUR AGENTS” (priority 2006, published 2009).

Experiments:
[1] = target: mTOR PI kinase-related kinase (Homo sapiens, UniProt P42345); test: In Vitro mTOR PI kinase-related Kinase Assay (AlphaScreen); format: biochemical; conditions: Test (b); read-out: IC50 versus mTOR PI kinase-related kinase
Protocol: (b) In Vitro mTOR PI kinase-related Kinase Assay The assay used AlphaScreen technology (Gray et al., Analytical Biochemistry, 2003, 313: 234-245) to determine the ability of test compounds to inhibit phosphorylation by recombinant mTOR. […]
Each reaction was stopped by the addition of 10 μl of a mixture of EDTA (50 mM), bovine serum albumin (BSA; 0.5 mg/ml) and Tris-HCl pH7.4 buffer (50 mM) containing p70 S6 Kinase (T389) IA5 Monoclonal Antibody (Cell Signalling Technology, Catalogue No. 9206B) and AlphaScreen Streptavidin donor and Protein A acceptor beads (200 ng; Perkin Elmer, Catalogue No. 6760002B and 6760137R respectively) were added and the assay plates were left for about 20 hours at room temperature in the dark. The resultant signals arising from laser light excitation at 680 nm were read using a Packard Envision instrument.
Phosphorylated biotinylated peptide is formed in situ as a result of mTOR mediated phosphorylation. […] Upon laser light excitation at 680 nm, the donor bead: acceptor bead complex produces a signal that can be measured. […] In the presence of an mTOR kinase inhibitor, signal strength is reduced. mTOR enzyme inhibition for a given test compound was expressed as an IC50 value.

p110α Type Ia human PI3K = target: T1, p110α Type Ia human PI3K (Homo sapiens, UniProt P42336); test: In Vitro PI3K Enzyme Assay (AlphaScreen); format: biochemical; conditions: Test (a); read-out: IC50 versus p110α Type Ia human PI3K
T1 construct: full length DNA of each of the p110α, p110β and p110δ Type Ia human PI3K p110 isoforms; 6-His; made in house; Grp1 PH domain in E. coli
Text: (a) In Vitro PI3K Enzyme Assay
The assay used AlphaScreen technology (Gray et al., Analytical Biochemistry, 2003, 313: 234-245) to determine the ability of test compounds to inhibit phosphorylation by recombinant Type I PI3K enzymes of the lipid PI(4,5)P2.
DNA fragments encoding human PI3K catalytic and regulatory subunits were isolated from cDNA libraries using standard molecular biology and PCR cloning techniques. The selected DNA fragments were used to generate baculovirus expression vectors. In particular, full length DNA of each of the p110α, p110β and p110δ Type Ia human PI3K p110 isoforms (EMBL Accession Nos. HSU79143, S67334, Y10055 for p110α, p110β and p110δ respectively) were sub-cloned into a pDEST10 vector (Invitrogen Limited, Fountain Drive, Paisley, UK). The vector is a Gateway-adapted version of Fastbac1 containing a 6-His epitope tag. […]
Each reaction was stopped by the addition of 10 μl of a mixture of EDTA (100 mM), bovine serum albumin (BSA, 0.045%) and Tris-HCl pH7.6 buffer (40 mM). […] The resultant signals arising from laser light excitation at 680 nm were read using a Packard AlphaQuest instrument. […]

[2] = test system: phosphorylation of Serine 473 in Akt in MDA-MB-468 human breast adenocarcinoma cell line; test: In Vitro Phospho-Ser473 Akt Assay; format: cell-based; conditions: Test (c), MDA-MB-468 cells, read-out: IC50, inhibition of phosphorylation of Serine 473 in Akt
Protocol: (c) In Vitro Phospho-Ser473 Akt Assay
This assay determines the ability of test compounds to inhibit phosphorylation of Serine 473 in Akt as assessed using Acumen Explorer technology (TTP LabTech Limited, Royston, Herts, SG8 6EE, UK), a plate reader that can be used to rapidly quantitate features of images generated by laser-scanning.
A MDA-MB-468 human breast adenocarcinoma cell line (LGC Promochem, Teddington, Middlesex, UK, Catalogue No. HTB-132) was routinely maintained at 37° C. with 5% CO2 up to a confluency of 70-90% in DMEM containing 10% FCS and 1% L-glutamine.
For the assay, the cells were detached from the culture flask using ‘Accutase’ (Innovative Cell Technologies Inc., San Diego, Calif., USA; Catalogue No. AT104) using standard tissue culture methods and resuspended in media to give 5.5×10^4 cells per ml. Aliquots (90 μl) were seeded into each of the inner 60 wells of a black ‘Costar’ 96-well plate (Corning Inc., NY, USA; Catalogue No. 3904) to give a density of 5000 cells per well. Aliquots (90 μl) of culture media were placed in the outer wells to prevent edge effects. [An alternative cell handling procedure involved the maintenance of the cells in a ‘SelecT’ robotic device (The Automation Partnership, Royston, Herts SG8 5WY, UK). Cells were resuspended in media to give 5×10^4 cells per ml. Aliquots (100 μl) were seeded into the wells of a black ‘Costar’ 96-well plate.] […]

T1 sequence (P27986 whole entry, the tested form may be a part, canonical isoform): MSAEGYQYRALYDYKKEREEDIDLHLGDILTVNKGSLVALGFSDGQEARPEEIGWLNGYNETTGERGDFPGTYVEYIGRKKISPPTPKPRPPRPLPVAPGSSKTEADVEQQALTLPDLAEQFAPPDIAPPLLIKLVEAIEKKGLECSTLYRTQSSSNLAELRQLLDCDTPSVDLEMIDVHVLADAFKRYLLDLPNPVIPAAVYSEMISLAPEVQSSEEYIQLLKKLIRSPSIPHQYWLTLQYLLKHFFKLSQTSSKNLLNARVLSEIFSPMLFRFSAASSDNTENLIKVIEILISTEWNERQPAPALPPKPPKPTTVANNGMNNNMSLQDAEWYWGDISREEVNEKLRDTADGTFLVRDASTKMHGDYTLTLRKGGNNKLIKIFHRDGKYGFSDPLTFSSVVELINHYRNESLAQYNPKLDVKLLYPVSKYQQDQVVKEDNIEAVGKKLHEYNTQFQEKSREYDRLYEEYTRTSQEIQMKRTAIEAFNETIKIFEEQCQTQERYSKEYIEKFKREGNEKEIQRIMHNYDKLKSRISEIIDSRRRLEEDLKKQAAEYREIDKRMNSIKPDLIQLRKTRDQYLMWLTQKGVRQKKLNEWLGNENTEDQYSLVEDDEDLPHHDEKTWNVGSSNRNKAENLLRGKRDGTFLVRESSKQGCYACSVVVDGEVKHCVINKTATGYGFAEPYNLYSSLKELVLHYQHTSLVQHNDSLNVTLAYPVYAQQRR
T1 sequence (P42336 whole entry, the tested form may be a part, canonical isoform): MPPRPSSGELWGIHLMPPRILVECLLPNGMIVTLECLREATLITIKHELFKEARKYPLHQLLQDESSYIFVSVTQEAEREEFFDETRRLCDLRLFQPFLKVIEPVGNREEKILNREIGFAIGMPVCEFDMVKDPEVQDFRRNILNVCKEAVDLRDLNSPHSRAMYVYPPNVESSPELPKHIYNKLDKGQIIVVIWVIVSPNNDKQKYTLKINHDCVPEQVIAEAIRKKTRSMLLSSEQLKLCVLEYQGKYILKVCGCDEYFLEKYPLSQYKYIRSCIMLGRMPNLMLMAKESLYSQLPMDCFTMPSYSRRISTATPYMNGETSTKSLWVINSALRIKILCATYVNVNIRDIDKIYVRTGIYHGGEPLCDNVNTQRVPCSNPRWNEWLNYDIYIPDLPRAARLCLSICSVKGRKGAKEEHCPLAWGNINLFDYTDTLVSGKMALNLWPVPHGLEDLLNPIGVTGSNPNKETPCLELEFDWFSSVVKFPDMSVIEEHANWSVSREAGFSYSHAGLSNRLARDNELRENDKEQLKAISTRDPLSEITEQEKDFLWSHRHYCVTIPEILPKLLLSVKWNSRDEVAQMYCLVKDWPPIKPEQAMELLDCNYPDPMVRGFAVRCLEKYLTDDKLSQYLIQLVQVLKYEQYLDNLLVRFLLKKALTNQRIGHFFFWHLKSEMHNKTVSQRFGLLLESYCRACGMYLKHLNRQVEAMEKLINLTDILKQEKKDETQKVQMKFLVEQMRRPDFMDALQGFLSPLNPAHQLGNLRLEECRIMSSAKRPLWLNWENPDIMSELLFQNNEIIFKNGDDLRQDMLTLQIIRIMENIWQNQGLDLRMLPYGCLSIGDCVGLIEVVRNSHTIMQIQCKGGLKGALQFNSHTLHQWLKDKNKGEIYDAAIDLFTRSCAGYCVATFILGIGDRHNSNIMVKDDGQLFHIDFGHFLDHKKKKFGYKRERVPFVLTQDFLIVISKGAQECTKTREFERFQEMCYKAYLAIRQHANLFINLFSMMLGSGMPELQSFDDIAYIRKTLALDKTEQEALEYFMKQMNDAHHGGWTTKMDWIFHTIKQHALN
Chain of mTOR PI kinase-related kinase (P42345 1362-2549): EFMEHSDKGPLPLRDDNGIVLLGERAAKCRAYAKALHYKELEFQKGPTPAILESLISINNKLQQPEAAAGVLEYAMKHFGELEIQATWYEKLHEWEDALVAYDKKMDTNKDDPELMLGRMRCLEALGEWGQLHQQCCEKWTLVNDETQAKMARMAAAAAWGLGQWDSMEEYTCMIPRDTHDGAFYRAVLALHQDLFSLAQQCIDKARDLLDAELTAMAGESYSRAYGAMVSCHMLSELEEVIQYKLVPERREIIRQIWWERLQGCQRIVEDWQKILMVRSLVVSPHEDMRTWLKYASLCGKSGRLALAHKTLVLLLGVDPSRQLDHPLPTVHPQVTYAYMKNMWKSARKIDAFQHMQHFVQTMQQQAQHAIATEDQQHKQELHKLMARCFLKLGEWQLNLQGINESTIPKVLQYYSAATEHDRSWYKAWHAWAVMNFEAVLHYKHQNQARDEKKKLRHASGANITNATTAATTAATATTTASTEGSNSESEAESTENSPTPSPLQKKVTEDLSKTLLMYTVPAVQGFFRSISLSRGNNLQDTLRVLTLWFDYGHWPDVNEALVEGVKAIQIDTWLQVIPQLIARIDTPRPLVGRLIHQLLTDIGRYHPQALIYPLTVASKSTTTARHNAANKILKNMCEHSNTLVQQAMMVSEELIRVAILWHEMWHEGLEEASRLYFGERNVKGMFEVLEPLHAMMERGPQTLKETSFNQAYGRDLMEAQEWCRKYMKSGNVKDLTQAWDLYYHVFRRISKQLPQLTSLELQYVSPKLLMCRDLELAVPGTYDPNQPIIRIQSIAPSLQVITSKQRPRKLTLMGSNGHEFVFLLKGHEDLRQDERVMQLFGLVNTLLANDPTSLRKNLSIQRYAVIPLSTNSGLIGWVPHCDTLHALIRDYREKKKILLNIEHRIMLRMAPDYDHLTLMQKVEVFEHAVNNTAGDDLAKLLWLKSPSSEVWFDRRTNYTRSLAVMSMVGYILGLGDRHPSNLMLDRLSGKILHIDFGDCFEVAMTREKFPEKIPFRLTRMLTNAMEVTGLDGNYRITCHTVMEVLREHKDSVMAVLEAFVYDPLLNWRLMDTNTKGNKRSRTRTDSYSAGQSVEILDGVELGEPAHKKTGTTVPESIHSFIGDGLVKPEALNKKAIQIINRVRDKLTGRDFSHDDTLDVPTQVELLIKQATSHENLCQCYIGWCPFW

- IC50 [1]: ~0.5 µM
- IC50 (p110α Type Ia human PI3K): ~5 µM
- IC50 [2]: ~10 µM
SMILES: CC(=O)Nc1ncc(-c2cc(NS(=O)(=O)c3ccccc3)cnc2C)s1 [Example 1, N-[5-(5-benzenesulphonamido-2-methylpyridin-3-yl)thiazol-2-yl]acetamide]
